In patent US20250144067A1, “PERSONALIZED STARVATION THERAPY FOR CANCER” (Faeth Therapeutics, Inc., priority 2021, published 2025):
Structures can show the parent of a compound that is named as a salt. Where two headings read alike, the source gives them in different places.

Legend:
[1] = tested on: NCI-H292 lung cancer cells; assay: FDA drug screening, complete media vs cholesterol-free media without statin (TABLE 1); format: cell-based, human
[2] = tested on: NCI-H292 lung cancer cells; assay: FDA drug screening, complete media vs cholesterol-free media with simvastatin (TABLE 2); format: cell-based, human
[3] = Complete minus Cholesterol-free, greater than 0 enhanced anti-cancer activity, about 0 neutral, below 0 antagonists
[4] = NCI-H292 cells in cholesterol-free media without statin
[5] = NCI-H292 cells in complete media
[6] = NCI-H292 cells, FDA drug library screen, cholesterol-free media with simvastatin 0.04 μM
[7] = NCI-H292 cells, FDA drug library screen, complete media
[8] = complete media minus cholesterol-free media + simvastatin, >0 enhanced anti-cancer activity, about 0 neutral, <0 antagonist
[9] = Complete minus Cholesterol-free, greater than 0 enhanced anti-cancer activity, about 0 neutral, below 0 antagonist
[10] = NCI-H292 cells, FDA drug library screen, cholesterol-free media without statin
[11] = NCI-H292 cells, cholesterol-free media with simvastatin 0.04 μM, cell growth value in FDA drug screen
[12] = NCI-H292 cells, complete media, cell growth value in FDA drug screen
[13] = Complete minus Cholesterol-free, >0 enhanced anti-cancer activity, about 0 neutral, <0 antagonist
[14] = NCI-H292 cells, cholesterol-free media without statin
[15] = complete vs cholesterol-free media, […]
[16] = complete media vs cholesterol-free media + simvastatin (0.04 μM), […]
[17] = NCI-H292 cells, cholesterol-free media without statin, FDA drug library screen
[18] = NCI-H292 cells, complete media, FDA drug library screen
[19] = NCI-H292 cells, cholesterol-free media with simvastatin 0.04 μM, FDA drug library screen (TABLE 2)
[20] = NCI-H292 cells, complete media, FDA drug library screen (TABLE 2)
[21] = complete media minus cholesterol-free media + simvastatin (0.04 μM), >0 enhanced anti-cancer activity, about 0 neutral, <0 antagonist
[22] = complete vs cholesterol-free media, greater than 0 enhanced anti-cancer activity, about 0 neutral, below 0 antagonists
[23] = complete media vs cholesterol-free media + simvastatin (0.04 μM), >0 enhanced anti-cancer activity, about 0 neutral, <0 antagonist
[24] = complete vs cholesterol-free media, >0 enhanced anti-cancer activity, about 0 neutral, <0 antagonist
[25] = NCI-H292 cells, FDA library drug in cholesterol-free media with simvastatin 0.04 μM
[26] = NCI-H292 cells, FDA library drug in complete media

CCN(c1cc(-c2ccc(CN3CCOCC3)cc2)cc(C(=O)NCc2c(C)cc(C)[nH]c2=O)c1C)C1CCOCC1 [Tazemetostat (hydrobromide)]
Difference [1, 3]: −0.47
Cholesterol-free [1, 4]: 1.683
Complete [1, 5]: 1.209
Cholesterol-free media + simvastatin (0.04 μM) [2, 6]: 0.8785
Complete Media [2, 7]: 1.469
Difference [2, 8]: 0.59

CCN(c1cc(-c2ccc(CN3CCOCC3)cc2)cc(C(=O)NCc2c(C)cc(C)[nH]c2=O)c1C)C1CCOCC1 [Tazemetostat]
Difference [1, 3]: −0.49
Cholesterol-free [1, 4]: 1.722
Complete [1, 5]: 1.228
Cholesterol-free media + simvastatin (0.04 μM) [2, 6]: 0.9335
Complete Media [2, 7]: 1.59
Difference [2, 8]: 0.66

C[C@]1(Cn2ccnn2)[C@H](C(=O)O)N2C(=O)C[C@H]2S1(=O)=O [Tazobactam]
Difference [1, 9]: −0.10
Cholesterol-free [1, 10]: 1.004
Complete [1, 7]: 0.9006
Cholesterol-free media + simvastatin (0.04 μM) [2, 6]: 1.141
Complete Media [2, 7]: 1.299
Difference [2, 8]: 0.16

Cn1nnc(-c2ccc(-c3ccc(N4C[C@H](CO)OC4=O)cc3F)cn2)n1 [Tedizolid]
Difference [1, 9]: −0.10
Cholesterol-free [1, 10]: 0.9116
Complete [1, 7]: 0.8073
Cholesterol-free media + simvastatin (0.04 μM) [2, 11]: 1.119
Complete Media [2, 12]: 1.184
Difference [2, 8]: 0.07

O=c1[nH]c(=O)n(C2CCCO2)cc1F (stereo not drawn) [Tegafur]
Difference [1, 13]: −0.25
Cholesterol-free [1, 14]: 0.9682
Complete ([1]; NCI-H292 cells, complete media): 0.7137
Cholesterol-free media + simvastatin (0.04 μM) [2, 6]: 1.002
Complete Media [2, 7]: 1.263
Difference [2, 8]: 0.26

CCC[C@H](NC(=O)[C@@H]1[C@H]2CCC[C@H]2CN1C(=O)[C@@H](NC(=O)[C@@H](NC(=O)c1cnccn1)C1CCCCC1)C(C)(C)C)C(=O)C(=O)NC1CC1 [Telaprevir]
Cholesterol-free [1, 14]: 1.55
Complete ([1]; NCI-H292 cells, complete media): 1.165
Difference [1, 15]: −0.39
Cholesterol-free media + simvastatin (0.04 μM) [2, 6]: 1.084
Complete Media [2, 7]: 0.9529
Difference [2, 16]: −0.13

Cc1cn([C@@H]2C[C@@H](O)[C@H](CO)O2)c(=O)[nH]c1=O [Telbivudine]
Difference [1, 13]: −0.03
Cholesterol-free [1, 17]: 0.8613
Complete [1, 18]: 0.8275
Cholesterol-free media + simvastatin (0.04 μM) [2, 19]: 0.8748
Complete Media [2, 20]: 0.8605
Difference [2, 21]: −0.01

CC[C@H]1OC(=O)[C@H](C)C(=O)[C@H](C)[C@@H](O[C@@H]2O[C@H](C)C[C@H](N(C)C)[C@H]2O)[C@](C)(OC)C[C@@H](C)C(=O)[C@H](C)[C@H]2N(CCCCn3cnc(-c4cccnc4)c3)C(=O)O[C@]12C [Telithromycin]
Difference [1, 3]: −0.51
Cholesterol-free [1, 4]: 1.316
Complete [1, 5]: 0.8019
Cholesterol-free media + simvastatin (0.04 μM) [2, 19]: 0.872
Complete Media [2, 20]: 0.854
Difference [2, 21]: −0.02

CCCc1nc2c(C)cc(-c3nc4ccccc4n3C)cc2n1Cc1ccc(-c2ccccc2C(=O)O)cc1 [Telmisartan]
Difference [1, 13]: −0.06
Cholesterol-free [1, 17]: 1.319
Complete [1, 18]: 1.255
Cholesterol-free media + simvastatin (0.04 μM) [2, 11]: 0.8657
Complete Media [2, 12]: 0.906
Difference [2, 8]: 0.04

CCOC(=O)[C@@H](N)Cc1ccc(-c2cc(O[C@H](c3ccc(Cl)cc3-n3ccc(C)n3)C(F)(F)F)nc(N)n2)cc1 [Telotristat ethyl]
Cholesterol-free [1, 14]: 1.253
Complete ([1]; NCI-H292 cells, complete media): 0.9282
Difference [1, 22]: −0.32
Cholesterol-free media + simvastatin (0.04 μM) [2, 6]: 1.11
Complete Media [2, 7]: 0.9913
Difference [2, 23]: −0.12

CCOC(=O)[C@@H](N)Cc1ccc(-c2cc(O[C@H](c3ccc(Cl)cc3-n3ccc(C)n3)C(F)(F)F)nc(N)n2)cc1 [Telotristat etiprate]
Difference [1, 3]: −0.51
Cholesterol-free [1, 4]: 1.323
Complete [1, 5]: 0.8145
Cholesterol-free media + simvastatin (0.04 μM) [2, 6]: 1.173
Complete Media [2, 7]: 1.074
Difference [2, 23]: −0.10

CCOC(=O)[C@H](CCc1ccccc1)N[C@H]1CS[C@H](c2cccs2)CN(CC(=O)O)C1=O [Temocapril (hydrochloride)]
Difference [1, 13]: 0.00
Cholesterol-free [1, 17]: 0.6068
Complete [1, 18]: 0.6079
Cholesterol-free media + simvastatin (0.04 μM) [2, 19]: 1.423
Complete Media [2, 20]: 1.436
Difference [2, 21]: 0.01

Oc1cccc(-c2c3nc(c(-c4cccc(O)c4)c4ccc([nH]4)c(-c4cccc(O)c4)c4nc(c(-c5cccc(O)c5)c5ccc2[nH]5)CC4)C=C3)c1 [Temoporfin]
Difference [1, 9]: −0.10
Cholesterol-free [1, 10]: 0.848
Complete [1, 7]: 0.7514
Cholesterol-free media + simvastatin (0.04 μM) [2, 6]: 0.6286
Complete Media [2, 7]: 0.9208
Difference [2, 8]: 0.29

Cn1nnc2c(C(N)=O)ncn2c1=O [Temozolomide]
Cholesterol-free [1, 14]: 1.265
Complete ([1]; NCI-H292 cells, complete media): 0.9503
Difference [1, 22]: −0.31
Cholesterol-free media + simvastatin (0.04 μM) [2, 6]: 0.984
Complete Media [2, 7]: 0.8242
Difference [2, 23]: −0.16

CO[C@H]1C[C@@H]2CC[C@@H](C)[C@@](O)(O2)C(=O)C(=O)N2CCCC[C@H]2C(=O)O[C@H]([C@H](C)C[C@@H]2CC[C@@H](OC(=O)C(C)(CO)CO)[C@H](OC)C2)CC(=O)[C@H](C)/C=C(\C)[C@@H](O)[C@@H](OC)C(=O)[C@H](C)C[C@H](C)/C=C/C=C/C=C/1C [Temsirolimus]
Difference [1, 13]: −0.06
Cholesterol-free [1, 17]: 0.4176
Complete [1, 18]: 0.3544
Cholesterol-free media + simvastatin (0.04 μM) [2, 11]: 0.4472
Complete Media [2, 12]: 0.5571
Difference [2, 8]: 0.11

CN1Cc2c(Cl)cc(Cl)cc2[C@H](c2cccc(S(=O)(=O)NCCOCCOCCNC(=O)NCCCCNC(=O)NCCOCCOCCNS(=O)(=O)c3cccc([C@@H]4CN(C)Cc5c(Cl)cc(Cl)cc54)c3)c2)C1 [Tenapanor]
Cholesterol-free [1, 17]: 0.6884
Complete [1, 18]: 0.8628
Difference [1, 24]: 0.17
Cholesterol-free media + simvastatin (0.04 μM) [2, 11]: 1.602
Complete Media [2, 12]: 1.62
Difference [2, 8]: 0.02

Cc1cc(N2CCN([C@@H]3CN[C@H](C(=O)N4CCSC4)C3)CC2)n(-c2ccccc2)n1 [Teneligliptin (hydrobromide)]
Difference ([1]; Complete minus Cholesterol-free, […]): −0.56
Cholesterol-free [1, 4]: 1.45
Complete [1, 5]: 0.8858
Cholesterol-free media + simvastatin (0.04 μM) [2, 25]: 1.564
Complete Media [2, 26]: 1.115
Difference [2, 16]: −0.45

Cc1cc(N2CCN([C@@H]3CN[C@H](C(=O)N4CCSC4)C3)CC2)n(-c2ccccc2)n1 [Teneligliptin]
Cholesterol-free [1, 14]: 1.328
Complete ([1]; NCI-H292 cells, complete media): 0.9852
Difference [1, 15]: −0.34
Cholesterol-free media + simvastatin (0.04 μM) [2, 6]: 0.6861
Complete Media [2, 7]: 1.012
Difference ([2]; complete media minus cholesterol-free media + simvastatin, […]): 0.33

COc1cc([C@@H]2c3cc4c(cc3[C@@H](O[C@@H]3O[C@@H]5CO[C@@H](c6cccs6)O[C@H]5[C@H](O)[C@H]3O)[C@H]3COC(=O)[C@H]23)OCO4)cc(OC)c1O [Teniposide]
Difference [1, 9]: −0.09
Cholesterol-free [1, 10]: 0.1831
Complete [1, 7]: 0.09739
Cholesterol-free media + simvastatin (0.04 μM) ([2]; NCI-H292 cells, drug in cholesterol-free media with simvastatin 0.04 μM): 0.3807
Complete Media ([2]; NCI-H292 cells, drug in complete media): 0.1883
Difference [2, 23]: −0.19

CC(C)OC(=O)OCOP(=O)(CO[C@H](C)Cn1cnc2c(N)ncnc21)OCOC(=O)OC(C)C.O=C(O)/C=C/C(=O)O [Tenofovir (Disoproxil Fumarate)]
Cholesterol-free [1, 14]: 1.163
Complete ([1]; NCI-H292 cells, complete media): 0.7425
Difference [1, 22]: −0.42
Cholesterol-free media + simvastatin (0.04 μM) [2, 25]: 1.321
Complete Media [2, 26]: 0.7221
Difference [2, 23]: −0.60

CC(C)OC(=O)OCOP(=O)(CO[C@H](C)Cn1cnc2c(N)ncnc21)OCOC(=O)OC(C)C [Tenofovir (Disoproxil)]
Difference [1, 3]: −0.65
Cholesterol-free [1, 4]: 1.348
Complete [1, 5]: 0.7009
Cholesterol-free media + simvastatin (0.04 μM) [2, 25]: 1.242
Complete Media [2, 26]: 0.9076
Difference [2, 23]: −0.33

C[C@H](Cn1cnc2c(N)ncnc21)OCP(=O)(O)O.O [Tenofovir (hydrate)]
Cholesterol-free [1, 17]: 0.8777
Complete [1, 18]: 1.281
Difference [1, 24]: 0.40
Cholesterol-free media + simvastatin (0.04 μM) [2, 6]: 1.824
Complete Media [2, 7]: 2.099
Difference [2, 8]: 0.27

CC(C)OC(=O)[C@H](C)N[P@](=O)(CO[C@H](C)Cn1cnc2c(N)ncnc21)Oc1ccccc1 [Tenofovir alafenamide fumarate]
Cholesterol-free [1]: 0.8261
Complete [1]: 0.7078
Difference [1]: −0.12
Cholesterol-free media + simvastatin (0.04 μM) [2]: 0.9223
Complete Media [2]: 0.8712
Difference [2]: −0.05

CC(C)OC(=O)[C@H](C)N[P@](=O)(CO[C@H](C)Cn1cnc2c(N)ncnc21)Oc1ccccc1 [Tenofovir alafenamide]
Cholesterol-free [1]: 1.21
Complete [1]: 0.7227
Difference [1]: −0.49
Cholesterol-free media + simvastatin (0.04 μM) [2]: 0.7269
Complete Media [2]: 0.65
Difference [2]: −0.08

C[C@H](Cn1cnc2c(N)ncnc21)OCP(=O)(O)O [Tenofovir]
Difference [1, 3]: −0.62
Cholesterol-free [1, 4]: 1.637
Complete [1, 5]: 1.013
Cholesterol-free media + simvastatin (0.04 μM) [2, 6]: 0.8374
Complete Media [2, 7]: 1.066
Difference [2, 8]: 0.23
